How the values were obtained:
PGHS 2 = target: T1, PGHS 2 (Homo sapiens, UniProt P35354); experiment: Prostaglandin G/H Synthase Inhibition Assay (PGHS 2); assay type: biochemical; details: Table A; 100 μM arachidonate; 2 min preincubation; read-out: IC50 (PGHS2)
T1 sequence (P35354 18-604): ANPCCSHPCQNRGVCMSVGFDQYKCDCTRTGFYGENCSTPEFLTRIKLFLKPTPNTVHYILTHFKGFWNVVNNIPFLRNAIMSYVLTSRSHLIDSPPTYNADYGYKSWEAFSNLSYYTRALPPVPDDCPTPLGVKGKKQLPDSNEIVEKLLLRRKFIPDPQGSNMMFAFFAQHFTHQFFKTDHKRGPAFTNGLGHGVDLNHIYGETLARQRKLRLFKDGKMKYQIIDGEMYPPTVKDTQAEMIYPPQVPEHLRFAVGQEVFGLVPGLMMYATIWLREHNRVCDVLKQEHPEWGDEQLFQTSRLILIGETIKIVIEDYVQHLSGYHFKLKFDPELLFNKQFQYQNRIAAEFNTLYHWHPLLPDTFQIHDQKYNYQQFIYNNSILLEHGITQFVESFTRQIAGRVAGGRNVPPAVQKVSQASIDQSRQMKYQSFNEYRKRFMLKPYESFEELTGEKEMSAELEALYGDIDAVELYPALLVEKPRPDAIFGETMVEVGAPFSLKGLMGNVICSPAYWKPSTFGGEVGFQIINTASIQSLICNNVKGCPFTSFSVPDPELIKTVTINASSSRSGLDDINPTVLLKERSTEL
Protocol: Prostaglandin G/H synthase (cyclooxygenase, PGHS, Cox) activity was determined spectrophotometrically essentially as described by Kulmacz et al (reference). […] The assay was adapted to a 96 well microtiter dish format as described below. […] The reaction plate was immediately placed in a microtiter reader and readings made at 610 nm for 1.5 min at 3 sec intervals. Reaction rates were calculated from the slope of the linear portion of the absorbance versus time curve. Rates for control samples lacking added inhibitors were used to calculate the percent inhibition of each test compound.
The ratio PGHS 1 IC50 /PGHS 2 IC50 is referred to as the selectivity ratio.

[1] = test system: PGE2 production in human monocytes; experiment: Cellular Assay: inhibition of PGE2 production in LPS-stimulated human peripheral blood monocytes; assay type: cell-based; details: Monocyte, Table B, LPS 1 μg/ml, 17.5 hours
Protocol: Human peripheral blood monocytes were obtained from normal donor blood by leukophoresis and isolated by elutriation. Monocytes were suspending in RPMI medium at 2×10^6 cells/ml, and plated at 200 μL/well in 96 well microtiter plates. Test compounds were added to the cells at appropriate concentration in DMSO such that the final DMSO concentration was 0.5% in the medium. Cells and compound or DMSO alone were incubated for 1 hour at 37° C. at which time cells were stimulated with 1 μg/ml LPS (Lipopolysaccharide, Salmonella typehrium, 5 mg/ml in 0.1% aqueous TEA) to induce PGHS 2 enzyme activity and prostaglandin production.

prostaglandin synthesis = details: in vivo; cited from earlier work
[2] = test system: both isoenzymes (prostaglandin G/H synthase, Cox 1 and Cox 2); details: cited from earlier work
Cox-2 = details: cited from earlier work

| SMILES | IC50 (PGHS 2) [µM] | other results |
| --- | --- | --- |
| CS(=O)(=O)c1ccc(-c2ccccc2-c2ccc(CO)cc2)cc1 [Example 43] | 50 to 300 |  |
| CS(=O)(=O)c1ccc(-c2ccccc2C2CCCCC2)cc1 [Example 71] | 10 to 50 |  |
| CS(=O)(=O)c1ccc(-c2ccccc2-c2ccc(N)cc2)cc1 [Example 16] | 50 to 300 |  |
| CS(=O)(=O)c1ccc(-c2cc3ccccc3cc2-c2ccccc2)cc1 [Example 401, 2-(4-methylsulfonylphenyl)-3-phenylnaphthalene] | 10 to 50 |  |
| NS(=O)(=O)c1ccc(-c2ccccc2-c2ccccc2)cc1 [Example 312, 2-(4-aminosulfonylphenyl)-1-biphenyl] | < 10 |  |
| CS(=O)(=O)c1ccc(-c2ccccc2C2=CCCCC2)cc1 [Example 70, 1-Cyclohexene-2-(4'-methylsulfonylphenyl)benzene] | 10 to 50 |  |
| COc1ccc(-c2ccccc2-c2ccc(S(C)(=O)=O)cc2)cc1OC [Example 6] | 50 to 300 |  |
| CS(=O)(=O)c1ccc(-c2ccccc2-c2ccccc2)c(Cl)c1 [Example 305] | 50 to 300 |  |
| COc1ccc(-c2ncccc2-c2ccc(S(C)(=O)=O)cc2)cc1 [Example 412] | 10 to 50 |  |
| CS(=O)(=O)c1ccc(-c2ccc([N+](=O)[O-])cc2-c2ccc(F)cc2)cc1 [Example 81] | 10 to 50 | IC50 [1]: 0.051 to 0.1 µM |
| CS(=O)(=O)c1ccc(-c2cc(N)ccc2-c2ccc(F)cc2)cc1 [Example 78] | 50 to 300 |  |
| Cc1ccc(-c2ccccc2-c2ccc(S(C)(=O)=O)cc2)cc1 [Example 3] | 10 to 50 |  |
| CS(=O)(=O)c1ccc(-c2ccccc2-c2ccc(C=O)cc2)cc1 [Example 41] | 10 to 50 | IC50 [1]: 0.051 to 0.1 µM |
| CS(=O)(=O)c1ccc(-c2ccccc2-c2cccnc2)cc1 [Example 51] | 50 to 300 |  |
| CS(=O)(=O)c1ccc(-c2ccccc2-c2cnc3ccccc3c2)cc1 [Example 53] | 50 to 300 |  |
| CS(=O)(=O)c1ccc(-c2ccccc2Oc2ccccc2)cc1 [Example 144, 1-Phenoxy-2-(4'-methylsulfonylphenyl)benzene] | < 10 | IC50 [1]: 0.051 to 0.1 µM |
| CS(=O)(=O)c1ccc(-c2ccccc2-c2ccc3ccccc3n2)cc1 [Example 52] | 50 to 300 |  |
| CS(=O)(=O)c1ccc(-c2ccccc2OC2CCCCC2)cc1 [Example 143] | < 10 |  |
| COc1cccc2cc(-c3ccccc3-c3ccc(S(C)(=O)=O)cc3)ccc12 [Example 50] | 10 to 50 |  |
| COc1cccc(-c2ccccc2-c2ccc(S(C)(=O)=O)cc2)c1 [Example 4] | 10 to 50 | IC50 [1]: 0.051 to 0.1 µM |

| SMILES | IC50 (PGHS 2) [µM] | other results |
| --- | --- | --- |
| CS(=O)(=O)c1ccc(-c2ccccc2-n2cccc2)cc1 [Example 153, 1-[2-(4'-methylsulfonylphenyl)phenyl]pyrrole] | 50 to 300 |  |
| CS(=O)(=O)c1ccc(-c2ccccc2-c2ccc(F)cc2)cc1 [Example 2] |  | IC50 [1]: 0.01 to 0.05 µM |
| CC(=O)c1ccc(-c2ccc(F)cc2)c(-c2ccc(S(C)(=O)=O)cc2)c1 [Example 93] | 10 to 50 |  |
| CS(=O)(=O)c1ccc(-c2ccccc2Oc2ccc(F)cc2)cc1 [Example 141] | < 10 |  |
| CS(=O)(=O)c1ccc(-c2ccccc2-c2cc3ccccc3s2)cc1 [Example 48] | < 10 | IC50 [1]: 0.01 to 0.05 µM |
| CS(=O)(=O)Nc1ccc([N+](=O)[O-])cc1OC1CCCCC1 [NS-398] |  | gastric lesions (prostaglandin synthesis): nor produce gastic lesions; gastric prostaglandin synthesis (prostaglandin synthesis): did not block gastric prostaglandin synthesis; mode of inhibition [2]: competitive toward both isoenzymes; time-dependence of inhibition (Cox-2; Cox-2, longer exposure): selective time-dependence against Cox-2; tightness / reversibility of binding inhibition (Cox-2; reversed only following enzyme denaturation and organic extraction): extremely tight binding inhibition |
| CS(=O)(=O)c1ccc(-c2ccccc2-c2ccccc2)cc1 [Example 1] | 10 to 50 |  |
| CS(=O)(=O)c1ccc(-c2ccccc2OCc2ccccc2)cc1 [Example 145] | 50 to 300 |  |
| CS(=O)(=O)c1ccc(-c2ccccc2N2CCCCC2)cc1 [Example 151, 1-[2-(4-methylsulfonylphenyl)phenyl]piperidine] | 10 to 50 |  |
| CS(=O)(=O)c1ccc(-c2cccnc2-c2ccc(F)cc2)cc1 [Example 411] | 10 to 50 |  |
| CN(C)c1ccc(-c2ccccc2-c2ccc(S(C)(=O)=O)cc2)cc1 [Example 20] | 10 to 50 | IC50 [1]: 0.01 to 0.05 µM |
| COc1ccc(-c2ccccc2-c2ccc(S(C)(=O)=O)cc2)cc1 [Example 5] | < 10 | IC50 [1]: 0.01 to 0.05 µM |
| CS(=O)(=O)c1ccc(-c2ccccc2-c2ccc3sccc3c2)cc1 [Example 47] | 10 to 50 |  |
| CS(=O)(=O)c1ccc(-c2ccc(N)cc2-c2ccc(F)cc2)cc1 [Example 79] | 50 to 300 |  |
| CS(=O)(=O)c1ccc(-c2ccccc2-c2ccc3ccccc3c2)cc1 [Example 49] | 10 to 50 | IC50 [1]: 0.051 to 0.1 µM |
| CS(=O)(=O)c1ccc(-c2cc([N+](=O)[O-])ccc2-c2ccc(F)cc2)cc1 [Example 80] | 10 to 50 |  |
| CS(=O)(=O)c1ccc(-c2cc(O)ccc2-c2ccccc2)cc1 [Example 87, 3-(4'-methylsulfonylphenyl)-4-phenylphenol] | 50 to 300 |  |
| COCc1ccc(-c2ccccc2-c2ccc(S(C)(=O)=O)cc2)cc1 [Example 42] | < 10 |  |
| CS(=O)(=O)c1ccc(-c2ccccc2C#Cc2ccccc2)cc1 [Example 152] | < 10 |  |
